We go through eight substances from patent EP2106802A1, “Modified peptides as synthetic vaccines in amyloid-associated disease” (SIGMA-TAU Industrie Farmaceutiche Riunite S.p.A., priority 2008, dated 2009).

No end group written: not given here.

The conditions of series [1]: phase II studies, patients who received the vaccine; cited from earlier work.
The conditions of series [2]: active vaccination, APP transgenic mice; cited from earlier work.
Series [3] concerns IFN-γ.
Experimental: To do this, the T-lymphocytes form peripheral blood mononuclear cells (PBMCs) response to Aβ[1-42] and Aβ[1-16], Aβ[1-16]-G, Aβ[1-16]+G, Aβ[13-28], Aβ[13-28]-G, Aβ[13-28]+G, Aβ[25-42], Aβ[25-42]-G, Aβ[25-42]+G was studied with the following experimental procedure:
In order to obtain mature dentritic cells, PBMCs from healthy donors were isolated by Ficoll-Hypaque gradient centrifugation (Pharmacia, Uppsala, Sweden). The cells were washed twice with PBS and finally were cultured at 10^6 cells/ml in RPMI 1640 supplemented with 10% (v/v) heat inactivated human serum (Bio Whittaker; Cambrex, Bioscience, Walkersville, MD Usa), 2mM L-glutamine, 20mM HEPES [N-2-hydroxyethylpiperazine-N'-2-ethanesulfonic acid], 1mM sodium pyruvate, 20mM non-essential amino acids, 55 µM 2-β-mercaptoethanol, 10 U/ml penicillin and streptomycin (Gibco and Invitrogen).
In order to obtain a pure culture of human peripheral blood monocytes, cells were purified by plastic adherence at 37°C for 30 minutes, followed by extensive washing with warm PBS to remove non-adherent cells. The monocytes were cultured in six-well plates (0,5 to 1,5 * 10^6 cells/m) in fresh complete medium supplemented with 1000U/ml of recombinant granulocyte-macrophage colony-stimulating factor (rGM-CSF) and 500U/ml interleukin-4 (IL-4, Pharmigen) for four days. The non-adherent mononuclear cells were washed repeatedly and cultured in 96-well round bottom plates (Nunc, Denmark) (10^6 cell/ml) in complete culture medium supplemented with interleukin-2 (IL-2; 5U/ml; Roche) for 4 days and used for subsequent studies. Monocytes-derived immature dendritic cells (DCs) were stimulated with the Aβ[1-16], Aβ[1-16]-G, Aβ[1-16]+G, Aβ[13-28], Aβ[13-28]-G, Aβ[13-28]+G, Aβ[25-42], Aβ[25-42]-G, Aβ[25-42]+G and Aβ[1-42] peptides (5ug/ml) for 1 day. For induction of dentritic cells (DC) maturation, the cells were stimulated with 50ng/ml TNFα (Pharmigen), 10ng/ml IL-6, 10ng/ml IL-1β, and 1µg/ml PGE2 for additional 2 days. Finally, they were cultured with autologous T-lymphocytes in 96-well flat bottom plates at a 1:4 ratio. A second stimulation with mature autologous monocyte-derived DC's previously stimulated with the peptides was performed at 10-14 days at the same ratios. Following further 10-14 days, lymphocytes were labelled with CFDA challenged with a third stimulation of monocyte-derived DC in the presence of peptides.
In order to evaluate the amount of IFN-γ produced by lymphocytes after the final third peptides stimulation the supernatants from cultured cells were harvested at 24 or 48 hr after the third stimulation. Cytokines were quantified by a standard-2-site sandwich enzyme-liked immunosorbent assay (ELISA). Abs for human IFN-γ were purchased from Pharmigen. Enhanced protein-binding ELISA plates (Nunc Maxisorb, Nunc Maxi, Roskilde, Denmark) were used.
Series [4] deals with T lymphocytes expressing CXCR5 in PBMCs of healthy donors. In words: CXCR5 expression in T-lymphocytes after peptide stimulation (flow cytometry). It is filed as cell-based, human. Conditions: for Percentage of T-lymphocytes expressing CXCR5, 1st and 3rd quartine: 1st and 3rd quartile of 10 donors; for expression of CXCR5 with respect to CTR: T-lymphocytes, Friedman test, result in words; for Percentage of T-lymphocytes expressing CXCR5: peptides 5ug/ml, 4 days after third stimulation; for Percentage of T-lymphocytes expressing CXCR5, Median: median of 10 donors, * P = <0,001 (Friedman). As to the method: In order to evaluate the expression of a specific marker (CXCR5) in cultured […], the cells, 4 days after the third stimulation, were washed twice and stained with anti-CXCR5, in PBS supplemented with 0.5% FCS and 0.01%NaN3 at 4°C. After twenty minutes they were washed twice and analysed on FACSCanto flow cytometer (Becton Dickinson). The data were analyzed using FlowJo software (TreeStar, CA, USA).
Table 3. The CXCR5 expression measured as % of T lymphocytes expressing CXCR5 in PBMCs of healthy donors vs total lymphocytes (median, 1st and 3rd quartile) has been reported. Friedman Repeated Measures Analysis of Variance on Ranks has been performed. Column 1: number of different donors (Pz); column 2: the percentage of control (CTR) not challenged T lymphocytes expressing CXCR5; columns 3-12: the percentage of T lymphocytes expressing CXCR5 after the stimulation with different peptides.
CXCR5, a chemokine transmembrane receptor belonging to the CXC chemokine receptor family plays an essential role in B cell activation (Legler D.F., et al., J. Exp. Med., 1998, 187, 4, 655). The CXCR5 expression was measured as % of T-lymphocytes expressing CXCR5 versus total lymphocytes (median, 1st and 3rd quartile) and Friedman Repeated Measures Analysis of Variance on Ranks was performed.

On to “AN1792: aggregated Aβ[1-42], first βA active vaccination (Pharmaceuticals Inc/Wyeth Pharmaceuticals)”, for which the “patients who developed meningoencephalitis” value in series [1] is listed as “about 6%”. In addition, the amyloid pathology result in series [2] is given as “showed improvement in amyloid pathology”.

Take GGNGGGIGGGMGGGVGIG [Seq.10]: the “production of IFN-γ in challenged T-lymphocytes” value (from here on “production of IFN-γ”) in series [3] is reported as “statistically significative production of IFN-γ”.

“Seq.1: Aβ[1-42] synthetic peptide, neurotoxic β amyloid peptide [reference compound]”: in series [4], the “Percentage of T-lymphocytes expressing CXCR5, 1st and 3rd quartine” value (“Percentage … 1st and 3rd quartine” below) was 8.6-40.2%. In addition, the “expression of CXCR5 with respect to CTR” value in series [4] is listed as “statistically different expression of CXCR5 with respect to CTR”. Further, the “Percentage of T-lymphocytes expressing CXCR5” value in series [4] (donor Pz1) is given as 19.06%; in series [4] (donor Pz2) it was 15.07%; in series [4] (donor Pz3), 68.0%; in series [4] (donor Pz4), 0.09%; in series [4] (donor Pz5), 8,6%; in series [4] (donor Pz7) it was 13,3%. The “Percentage of T-lymphocytes expressing CXCR5, Median” value (“Percentage … Median” for short) in series [4] was 17.7* %. In series [3], the “production of IFN-γ” value is given as “statistically significative production of IFN-γ”.

With “Seq.3: Aβ[1-16] fragment modified by introduction of glycines in alternate positions, at odd positions (-G) (GAGFGHGSGYGVGHGK)”, the “Percentage … 1st and 3rd quartine” value in series [4] is listed as 14.1-39.9%. In addition, the “expression of CXCR5 with respect to CTR” value in series [4] is on record as “statistically different expression of CXCR5 with respect to CTR”. The “Percentage of T-lymphocytes expressing CXCR5” value in series [4] (donor Pz1) was 16.05%; in series [4] (donor Pz2), 20.05%; in series [4] (donor Pz3), 64.01%; in series [4] (donor Pz4), 2.09%; in series [4] (donor Pz5), 9,5%; in series [4] (donor Pz6), 6,9%. The “Percentage of T-lymphocytes expressing CXCR5” value in series [4] (donor Pz7) is given as 14,7%; in series [4] (donor Pz8) it was 40.06%; in series [4] (donor Pz9), 35.03%; in series [4] (donor Pz10) it was 36.00%. Moreover, in series [4], the “Percentage … Median” value is 30.6* %. The “production of IFN-γ” value in series [3] is recorded as “statistically significative production of IFN-γ”.

For “Seq.5: Aβ[13-28] fragment of the Aβ[1-42] sequence (HHQKLVFFAEDVGSNK)”, the “Percentage … 1st and 3rd quartine” value in series [4] is on record as 8.5-30.4%. In series [4], the “expression of CXCR5 with respect to CTR” value is reported as “statistically different expression of CXCR5 with respect to CTR”. Further, the “Percentage of T-lymphocytes expressing CXCR5” value is listed as 15.05% in series [4] (donor Pz1); 23.05% in series [4] (donor Pz2); 12.08% in series [4] (donor Pz3); 1.02% in series [4] (donor Pz4); 8,5% in series [4] (donor Pz5); 7,4% in series [4] (donor Pz6). In addition, the “Percentage of T-lymphocytes expressing CXCR5” value is reported as 13,5% in series [4] (donor Pz7), 45.01% in series [4] (donor Pz8), 33.00% in series [4] (donor Pz9) and 30.04% in series [4] (donor Pz10). The “Percentage … Median” value in series [4] is on record as 14.5* %. For the same substance, the “production of IFN-γ” value in series [3] is on record as “statistically significative production of IFN-γ”.

Take “Seq.6: Aβ[13-28] fragment modified by introduction of glycines in alternate positions, at odd positions (-G) (GHGKGVGFGEGVGSGK)”: the “Percentage … 1st and 3rd quartine” value in series [4] is on record as 11.3-39.9%. Besides, the “expression of CXCR5 with respect to CTR” value in series [4] is on record as “statistically different expression of CXCR5 with respect to CTR”. For the same substance, the “Percentage of T-lymphocytes expressing CXCR5” value in series [4] (donor Pz1) is on record as 22.04%; in series [4] (donor Pz2) it was 23.03%; in series [4] (donor Pz3) it was 25.09%; in series [4] (donor Pz4), 0%; in series [4] (donor Pz5), 13,4%; in series [4] (donor Pz6), 7,3%. The “Percentage of T-lymphocytes expressing CXCR5” value is reported as 14,6% in series [4] (donor Pz7), 43.03% in series [4] (donor Pz8), 31.03% in series [4] (donor Pz9) and 29.05% in series [4] (donor Pz10). For the same substance, the “Percentage … Median” value in series [4] is reported as 21.7* %. Besides, in series [3], the “production of IFN-γ” value was “statistically significative production of IFN-γ”.

As for “Seq.8: Aβ[25-42] fragment of the Aβ[1-42] sequence (GSNKGAIIGLMVGGVVIA)”, the “Percentage … 1st and 3rd quartine” value in series [4] was 8.2-36.7%. In addition, the “expression of CXCR5 with respect to CTR” value in series [4] is “statistically different expression of CXCR5 with respect to CTR”. The “Percentage of T-lymphocytes expressing CXCR5” value is listed as 19.00% in series [4] (donor Pz1); 13.06% in series [4] (donor Pz2); 64.04% in series [4] (donor Pz3); 0.08% in series [4] (donor Pz4); 8,2% in series [4] (donor Pz5); 7,3% in series [4] (donor Pz6). Also, the “Percentage of T-lymphocytes expressing CXCR5” value in series [4] (donor Pz7) is on record as 15,8%; in series [4] (donor Pz8) it was 45.00%; in series [4] (donor Pz9), 36.07%; in series [4] (donor Pz10), 36.00%. In addition, the “Percentage … Median” value in series [4] is 17.4* %. Besides, the “production of IFN-γ” value in series [3] is “statistically significative production of IFN-γ”.

Take “Seq.9: Aβ[25-42] fragment modified by introduction of glycines in alternate positions, at odd positions (-G) (GSGKGAGIGLGVGGGVGA)”: the “Percentage … 1st and 3rd quartine” value in series [4] is recorded as 9.2-33.4%. In series [4], the “expression of CXCR5 with respect to CTR” value was “statistically different expression of CXCR5 with respect to CTR”. The “Percentage of T-lymphocytes expressing CXCR5” value is listed as 23.01% in series [4] (donor Pz1); 15.02% in series [4] (donor Pz2); 11.03% in series [4] (donor Pz3); 0.08% in series [4] (donor Pz4); 11,3% in series [4] (donor Pz5); 7,5% in series [4] (donor Pz6). Moreover, the “Percentage of T-lymphocytes expressing CXCR5” value in series [4] (donor Pz7) is on record as 13,4%; in series [4] (donor Pz8), 61.07%; in series [4] (donor Pz9) it was 36.01%; in series [4] (donor Pz10), 34.06%. Besides, the “Percentage … Median” value in series [4] is on record as 14.9* %. Besides, the “production of IFN-γ” value in series [3] was “statistically significative production of IFN-γ”.
